The structures appear in SMILES notation.

From patent publication US11076595B2, “1-(n,n-disubstituted carbamoyl) 4-(substituted sulfonyl)triazolin-5-one derivative, 4-(n,n-disubstituted carbamoyl) 1-(substituted sulfonyl)triazolin-5-one derivative, and herbicide containing said derivative as active ingredient” (HOKKO CHEMICAL INDUSTRY CO., LTD., priority 2017, dated 2021) come the findings set out here.

Assay type in all cases: in vivo
Test [1] deals with Chenopodium album. The experiment in a line: Test Example 13: herbicidal effect test by soil treatment in upland field. The settings on record: 120 g/10a, 14 days after treatment. As for the experimental part:
(§1) A pot having a size of 36 cm^2 was filled with field soil (alluvial soil) and after mixing the soil of the surface layer of 1 cm with 20 grains of each weed seed of crabgrass, Echinochloa crus-galli, Chenopodium album and Amaranthus viridis, the surface layer was pressed lightly. One day after the sowing, an emulsifiable concentrate prepared according to Formulation Example 15 by using the compound shown in Table 11 below was diluted with water, and the water-diluted formulation was sprayed on the soil surface at a ratio of 100 liter per 10 are. The application rate of the active ingredient, by conversion, corresponded to 120 g per 10 are. Fourteen Days after the formulation treatment, the herbicidal effect was evaluated by the same criteria as in Test Example 11.

For test [2], the system named is crabgrass. The test is described as above. As to conditions: 120 g/10a, 14 days after treatment. As for the experimental part:
as §1

Test [3] deals with Amaranthus viridis. The test is described as above. As to conditions: 120 g/10a, 14 days after treatment. How it is done: as §1
In test [4] the test system is Echinochloa crus-galli. The description is as above. The settings on record: 120 g/10a, 14 days after treatment. As for the experimental part: as §1
The subject of test [5] is Echinochloa crus-galli. Put plainly: Test Example 11: herbicidal effect test by soil treatment in paddy field. As to conditions: 120 g/10a active ingredient, 14 days after treatment. In short, it runs like this:
(§2)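 Dry weight at day 14 relative to untreated controls gives the suppression rate; duplicate pots. Treatment: 120 g a.i./10 are into paddy water at sowing.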

Test [6] concerns Monochoria vaginalis. The test is described as above. The settings on record: 120 g/10a active ingredient, 14 days after treatment. An outline of the steps:
as §2

Test [7] relates to Lindernia pyxidaria. The test is described as above. The settings on record: 120 g/10a active ingredient, 14 days after treatment. In short, it runs like this:
as §2

For test [8], the system named is Scirpus juncoides. The test is described as above. As to conditions: 120 g/10a active ingredient, 14 days after treatment. An outline of the steps:
as §2

The subject of test [9] is Echinochloa crus-galli. The experiment in a line: Test Example 12: herbicidal effect test by treatment during growing period in paddy field. As to conditions: 120 g/10a; treatment seven days after sowing in flooded paddy pot; assessed 14 days after treatment. An outline of the steps:
(§3)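 Weed suppression (%) = (1 − treated/untreated mean dry weight) × 100, scored 14 days after treatment with two replicates per plot. Dose 120 g a.i. per 10 are, as diluted emulsifiable concentrate added dropwise to flooded pots (water about 3 cm) 7 days post-sowing, seeds at 0-1 cm.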

The test system of test [10] is Monochoria vaginalis. Described as above. As to conditions: 120 g/10a; treatment seven days after sowing in flooded paddy pot; assessed 14 days after treatment. An outline of the steps:
as §3

For test [11], the system named is Lindernia pyxidaria. The test is described as above. As to conditions: 120 g/10a; treatment seven days after sowing in flooded paddy pot; assessed 14 days after treatment. An outline of the steps: as §3
The subject of test [12] is Scirpus juncoides. Described as above. As to conditions: 120 g/10a; treatment seven days after sowing in flooded paddy pot; assessed 14 days after treatment. An outline of the steps: as §3
Test [13] concerns Chenopodium album. The experiment in a line: Test Example 14: herbicidal effect test by foliage treatment in upland field. The settings on record: 7 days after sowing, 120 g/10a, 14 days after treatment. In short, it runs like this: (§4)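 Emulsifiable concentrate, water-diluted, is applied post-emergence to 7-day-old sowings in field soil at 120 g active ingredient per 10 are. The weed suppression rate derives from average dry weights versus untreated controls, measured 14 days later.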

Test [14] has as its system crabgrass. Described as above. As to conditions: 7 days after sowing, 120 g/10a, 14 days after treatment. An outline of the steps: as §4
Test [15] relates to Amaranthus viridis. The description is as above. As to conditions: 7 days after sowing, 120 g/10a, 14 days after treatment. In short, it runs like this: as §4
For test [16], the system named is Echinochloa crus-galli. The description is as above. The settings on record: 7 days after sowing, 120 g/10a, 14 days after treatment. An outline of the steps:
as §4

Consider `CCN(CC)C(=O)n1cnn(S(=O)(=O)c2ccccc2C(F)(F)F)c1=O` [Compound 11-710], for which the “herbicidal effect, Chenopodium album” value in test [1] amounted to 60%. Also, the “herbicidal effect, Crabgrass” value in test [2] is 80%. The “herbicidal effect, Amaranthus viridis” value in [3] is 40%. In test [4], the “herbicidal effect, Echinochloa crus-galli” value is on record as 100%. The “Weed suppression rate (%) Echinochloa crus-galli” value in test [5] stood at 70%; in test [9], 80%. Also, the “Weed suppression rate (%) Monochoria vaginalis” value in [6] and in [10] was 40% each time. Also, the “Weed suppression rate (%) Lindemia pyxidaria” value in test [7] and in test [11] was 40% in each case. Moreover, the “Weed suppression rate (%) Scirpus juncoides” value in test [8] and in test [12] was 40% each time.

On to `CC(C)N(C(=O)n1cnn(S(=O)(=O)c2ccccc2C(F)(F)F)c1=O)c1ccc(F)cc1F` [Compound 11-711], for which the “herbicidal effect, Chenopodium album” value in test [1] came out at 50%. The “herbicidal effect, Crabgrass” value in [2] is reported as 90%. In addition, in test [3], the “herbicidal effect, Amaranthus viridis” value stood at 50%. For the same compound, the “herbicidal effect, Echinochloa crus-galli” value in [4] stood at 100%. For the same compound, the “Weed suppression rate (%) Echinochloa crus-galli” value in test [5] was determined as 90%; in test [9] it was 60%. The “Weed suppression rate (%) Monochoria vaginalis” value turned out to be 90% in test [6] and 70% in [10]. Besides, the “Weed suppression rate (%) Lindemia pyxidaria” value in test [7] is listed as 90%; in test [11], 70%. In addition, the “Weed suppression rate (%) Scirpus juncoides” value in test [8] stood at 90%; in [12], 60%.

In the case of `CC(C)N(C(=O)n1cnn(S(=O)(=O)c2cccs2)c1=O)c1c(F)cccc1F` [Compound 11-1024], the “herbicidal effect, Chenopodium album” value in [1] is 60%. Moreover, in [2], the “herbicidal effect, Crabgrass” value was determined as 100%. Further, in test [3], the “herbicidal effect, Amaranthus viridis” value came out at 60%. Further, in test [4], the “herbicidal effect, Echinochloa crus-galli” value is 70%. Further, the “Weed suppression rate (%) Echinochloa crus-galli” value in test [5] and in [9] was 100% each time. Moreover, the “Weed suppression rate (%) Monochoria vaginalis” value in test [6] was determined as 70%; in test [10], 90%. In addition, the “Weed suppression rate (%) Lindemia pyxidaria” value in test [7] and in test [11] was 80% throughout. The “Weed suppression rate (%) Scirpus juncoides” value in test [8] is recorded as 80%; in [12], 90%.

Take `Cc1cc(F)ccc1N(C(=O)n1cnn(S(C)(=O)=O)c1=O)C(C)C` [Compound 11-25]: in [1], the “herbicidal effect, Chenopodium album” value was 30%. In test [2], the “herbicidal effect, Crabgrass” value was 100%. Besides, in [3], the “herbicidal effect, Amaranthus viridis” value is 30%. Also, the “herbicidal effect, Echinochloa crus-galli” value in [4] is reported as 80%. In addition, the results for the “Weed suppression rate (%) Echinochloa crus-galli” value in test [5] and in test [9] were 90% and 100%, respectively. Besides, the “Weed suppression rate (%) Monochoria vaginalis” value in test [6] is on record as 60%; in [10], 70%. Further, the “Weed suppression rate (%) Lindemia pyxidaria” value in test [7] and in [11] was 70% each time. Besides, the “Weed suppression rate (%) Scirpus juncoides” value in [8] was 90%; in test [12], 100%.

Regarding `CCN(CC)C(=O)n1cnn(S(=O)(=O)c2ccc(C(C)(C)C)cc2)c1=O` [Compound 11-670], the “herbicidal effect, Chenopodium album” value in test [1] is 0%. The “herbicidal effect, Crabgrass” value in test [2] worked out at 70%. Moreover, the “herbicidal effect, Amaranthus viridis” value in [3] was 0%. Besides, the “herbicidal effect, Echinochloa crus-galli” value in test [4] is 70%. For the same compound, the “Weed suppression rate (%) Echinochloa crus-galli” value in test [5] was 50%. Besides, the “Weed suppression rate (%) Monochoria vaginalis” value in [6] was found to be 50%. In addition, the “Weed suppression rate (%) Lindemia pyxidaria” value in [7] is 70%. Besides, the “Weed suppression rate (%) Scirpus juncoides” value in test [8] was found to be 60%.

Consider `CCN(CC)C(=O)n1cnn(S(=O)(=O)c2ccc(C)cc2)c1=O` [Compound 11-625], for which, in [1], the “herbicidal effect, Chenopodium album” value is 0%. The “herbicidal effect, Crabgrass” value in [2] turned out to be 80%. Also, the “herbicidal effect, Amaranthus viridis” value in test [3] is 0%. Besides, the “herbicidal effect, Echinochloa crus-galli” value in test [4] was determined as 80%. Further, in [5], the “Weed suppression rate (%) Echinochloa crus-galli” value stood at 100%. For the same compound, the “Weed suppression rate (%) Monochoria vaginalis” value in test [6] is 40%. Moreover, the “Weed suppression rate (%) Lindemia pyxidaria” value in test [7] came out at 80%. Besides, the “Weed suppression rate (%) Scirpus juncoides” value in test [8] is 60%.

On to `CC(C)N(C(=O)n1cnn(S(=O)(=O)c2cccnc2)c1=O)c1ccc(F)cc1F` [Compound 11-985], for which the “herbicidal effect, Chenopodium album” value in test [1] is 0%. Moreover, the “herbicidal effect, Crabgrass” value in test [2] is 80%. The “herbicidal effect, Amaranthus viridis” value in test [3] is 0%. Further, the “herbicidal effect, Echinochloa crus-galli” value in test [4] is reported as 80%. Also, in test [5], the “Weed suppression rate (%) Echinochloa crus-galli” value is on record as 90%. Further, the “Weed suppression rate (%) Monochoria vaginalis” value in [6] is reported as 40%. Further, the “Weed suppression rate (%) Lindemia pyxidaria” value in [7] was 60%. Moreover, in [8], the “Weed suppression rate (%) Scirpus juncoides” value was 40%.

`CC(C)N(C(=O)n1cnn(S(=O)(=O)c2cccs2)c1=O)c1ccc(F)c(F)c1F` [Compound 11-1025]: the “herbicidal effect, Chenopodium album” value in test [13] is 60%. In addition, the “herbicidal effect, Crabgrass” value in test [14] is 100%. The “Weed suppression rate (%) Echinochloa crus-galli” value in test [5] and in test [9] was 100% each time. In addition, the “Weed suppression rate (%) Monochoria vaginalis” value in [6] and in [10] was 100% in each case. In addition, the “Weed suppression rate (%) Lindemia pyxidaria” value is reported as 100% in test [7] and 80% in test [11]. For the same compound, the “Weed suppression rate (%) Scirpus juncoides” value in [8] and in [12] was 100% in each case. Also, in test [15], the “herbicidal effect, Amaranthus viridis” value was 60%. For the same compound, the “herbicidal effect, Echinochloa crus-galli” value in [16] amounted to 100%.

`CC(C)N(C(=O)n1cnn(S(=O)(=O)c2cccs2)c1=O)c1ccc(Br)cc1Cl` [Compound 11-1033]: the “herbicidal effect, Chenopodium album” value in test [13] is on record as 60%. The “herbicidal effect, Crabgrass” value in test [14] is reported as 90%. Besides, the “Weed suppression rate (%) Echinochloa crus-galli” value in test [5] and in test [9] was 100% each time. In addition, the “Weed suppression rate (%) Monochoria vaginalis” value in [6] was 90%; in test [10] it was 100%. Moreover, the “Weed suppression rate (%) Lindemia pyxidaria” value in test [7] and in [11] was 100% in each case. In addition, the “Weed suppression rate (%) Scirpus juncoides” value in test [8] and in test [12] was 100% each time. For the same compound, the “herbicidal effect, Amaranthus viridis” value in test [15] turned out to be 60%. Further, in test [16], the “herbicidal effect, Echinochloa crus-galli” value worked out at 90%.

With `Cc1cc(Cl)ccc1N(C(=O)n1cnn(S(=O)(=O)C(C)C)c1=O)C(C)C` [Compound 11-74], the “herbicidal effect, Chenopodium album” value in test [13] was found to be 80%. Besides, the “herbicidal effect, Crabgrass” value in test [14] turned out to be 90%. Besides, the “Weed suppression rate (%) Echinochloa crus-galli” value in test [5] and in test [9] was 90% in each case. Further, the “Weed suppression rate (%) Monochoria vaginalis” value in test [6] and in test [10] was 80% each time. Besides, the “Weed suppression rate (%) Lindemia pyxidaria” value in test [7] and in test [11] was 80% in each case. In addition, the “Weed suppression rate (%) Scirpus juncoides” value in test [8] and in test [12] was 90% throughout. Besides, in [15], the “herbicidal effect, Amaranthus viridis” value was found to be 90%. Besides, in test [16], the “herbicidal effect, Echinochloa crus-galli” value was determined as 80%.

On to `CC(C)N(C(=O)n1cnn(S(=O)(=O)c2ccc(C(C)(C)C)cc2)c1=O)c1c(F)cc(F)cc1F` [Compound 11-686], for which the “herbicidal effect, Chenopodium album” value in [13] is 60%. In test [14], the “herbicidal effect, Crabgrass” value is 90%. Also, the “Weed suppression rate (%) Echinochloa crus-galli” value in [5] and in test [9] was 90% throughout. Further, the entries for the “Weed suppression rate (%) Monochoria vaginalis” value in test [6] and in test [10] were 80% and 70%, respectively. In addition, the “Weed suppression rate (%) Lindemia pyxidaria” value was found to be 100% in [7] and 60% in [11]. In addition, the “Weed suppression rate (%) Scirpus juncoides” value in test [8] and in [12] was 100% throughout. Moreover, in test [15], the “herbicidal effect, Amaranthus viridis” value was found to be 30%. In test [16], the “herbicidal effect, Echinochloa crus-galli” value stood at 90%.
